Experimental data reported in PubChem BioAssay AID651829 (Broad Institute, 2012).
Blank lines part the entries; values can stand above or below the molecule they belong to. Activity calls are given as the source filed them.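 Rule for the calls: active = max delta Tm melting temperature shift above 1 degree C at some tested dose; inactive = the rest.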

Target: Kelch-like ECH-associated protein 1 (Homo sapiens) (UniProt Q14145)
Assay: Keap1 Kelch domain binders by melting shift, dose response, orthogonal assay for Keap1-Nrf2 interaction inhibitor project, biophysical, thermal shift, RT-PCR instrument, dry powder (AID 651829)
Conditions: Recombinant Keap1 Kelch domain, Sypro Orange, top dose 38 µM, hits give high values

Sequence of Kelch-like ECH-associated protein 1 (Homo sapiens) (Q14145 whole entry, looked up, the tested form may be a part): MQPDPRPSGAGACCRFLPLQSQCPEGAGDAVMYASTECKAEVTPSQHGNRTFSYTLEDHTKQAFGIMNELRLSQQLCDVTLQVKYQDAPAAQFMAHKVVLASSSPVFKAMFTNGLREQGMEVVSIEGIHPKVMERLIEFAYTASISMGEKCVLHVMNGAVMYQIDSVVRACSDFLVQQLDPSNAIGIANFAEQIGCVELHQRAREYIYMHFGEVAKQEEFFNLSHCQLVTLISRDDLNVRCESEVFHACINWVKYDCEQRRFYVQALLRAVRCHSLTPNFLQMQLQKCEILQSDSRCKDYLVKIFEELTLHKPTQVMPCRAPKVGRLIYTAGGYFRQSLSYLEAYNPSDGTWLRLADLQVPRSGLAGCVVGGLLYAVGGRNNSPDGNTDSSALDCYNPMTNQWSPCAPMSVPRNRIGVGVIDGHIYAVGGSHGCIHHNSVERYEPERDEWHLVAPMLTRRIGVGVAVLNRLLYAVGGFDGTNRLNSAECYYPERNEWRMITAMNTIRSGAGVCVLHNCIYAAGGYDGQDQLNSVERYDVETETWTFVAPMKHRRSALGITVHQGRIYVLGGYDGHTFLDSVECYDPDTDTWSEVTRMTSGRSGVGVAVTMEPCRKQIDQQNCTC

Structure (SMILES): O=C(Cc1ccccc1)NC[C@@H]1c2ccccc2CCN1C(=O)[C@@H]1CCCC[C@@H]1C(=O)O
max delta Tm (at 38 µM): 1.66 degrees C

Structure (SMILES): C[C@H](NC(=O)C1CCCC[C@H]1C(=O)O)c1ccccc1 (mixture of isomers)
max delta Tm (at 10 µM): -0.003 °C (inactive)

Structure (SMILES): COC(=O)C1CCCCC1C(=O)N1CCc2ccccc2C1CN1C(=O)c2ccccc2C1=O (stereo not drawn)
max delta Tm (at 0.16 µM): 0.175 °C (inactive)

Structure (SMILES): NC(=O)c1ccccc1C(=O)NC[C@@H]1c2ccccc2CCN1C(=O)[C@@H]1CCCC[C@@H]1C(=O)O
max delta Tm (at 38 µM): 0.771 °C (inactive)

Structure (SMILES): COc1ccccc1CCNC(=O)[C@@H]1c2ccccc2CCN1C(=O)C1CCCCC1C(=O)O (stereo partly drawn)
max delta Tm (at 0.3 µM): 0.192 °C (inactive)
max delta Tm (at 19.5 µM): 0.102 °C (inactive)

Structure (SMILES): O=C(O)[C@H]1CCCC[C@H]1C(=O)N1CCc2ccccc2[C@H]1CNc1nc(Cl)nc2ccccc12
max delta Tm (at 0.16 µM): 0.129 °C (inactive)

Structure (SMILES): O=C(NC[C@@H]1c2ccccc2CCN1C(=O)[C@@H]1CCCC[C@@H]1C(=O)O)c1ccc(CN2CCOCC2)cc1
max delta Tm (at 38 µM): 0.592 °C (inactive)

Structure (SMILES): O=C(NCCO)c1ccccc1C(=O)NC[C@@H]1c2ccccc2CCN1C(=O)C1CCCCC1C(=O)O (stereo partly drawn)
max delta Tm (at 38 µM): 1.77 degrees C

Structure (SMILES): CC(C)OC(=O)C(C(=O)C(F)(F)F)c1cc(NS(=O)(=O)c2ccccc2)c2ccccc2c1O (stereo not drawn)
max delta Tm (at 38 µM): 4.43 degrees C

Structure (SMILES): Cc1cc(C)c(S(=O)(=O)Nc2nc(NCCO)nc3ccccc23)c(C)c1
max delta Tm (at 0.16 µM): 0.147 °C (inactive)

Structure (SMILES): COc1ccc(CCN=C2C=C(NS(=O)(=O)c3c(C)cc(C)cc3C)c3ccccc3C2=O)cc1
max delta Tm (at 2.6 µM): 0.288 °C (inactive)

Structure (SMILES): Cc1ccc(S(=O)(=O)NC(=O)[C@@H]2c3ccccc3CCN2C(=O)[C@@H]2CCCC[C@@H]2C(=O)O)cc1
max delta Tm (at 0.3 µM): 0.155 °C (inactive)
max delta Tm (at 38 µM): 2.68 degrees C

Structure (SMILES): Cc1ccc(S(=O)(=O)Nc2cc(C(C(=O)OC(C)C)C(=O)C(F)(F)F)c(O)c3ccccc23)cc1 (stereo not drawn)
max delta Tm (at 38 µM): 6.81 degrees C

Structure (SMILES): O=C(NC[C@@H]1c2ccccc2CCN1C(=O)[C@@H]1CCCC[C@@H]1C(=O)O)c1ccccc1
max delta Tm (at 0.16 µM): 0.132 °C (inactive)

The next lines start with the values.

max delta Tm (at 1.2 µM): 0.003 °C (inactive)
Structure (SMILES): O=C1c2ccccc2C(=O)N1C[C@H]1NCCc2ccccc21

max delta Tm (at 2.6 µM): 0.138 °C (inactive)
Structure (SMILES): O=C(O)C1CCCCC1C(=O)Nc1ccccc1CN1C(=O)c2ccccc2C1=O (stereo not drawn)

max delta Tm (at 1.2 µM): -0.003 °C (inactive)
Structure (SMILES): O=C(O)C1CCCCC1C(=O)N1CCc2ccccc2C1c1ccccc1 (stereo not drawn)

max delta Tm (at 0.3 µM): 0.22 °C (inactive)
Structure (SMILES): Cc1ccc(S(=O)(=O)NNc2nc(NCC(N)=O)nc3ccccc23)cc1

max delta Tm (at 38 µM): 1.34 degrees C
Structure (SMILES): NC(=O)[C@H]1CCCC[C@H]1C(=O)N1CCc2ccccc2[C@H]1CN1C(=O)c2ccccc2C1=O

max delta Tm (at 0.16 µM): 0.172 °C (inactive)
max delta Tm (at 38 µM): 2.69 degrees C
Structure (SMILES): O=C(O)[C@H]1CCCC[C@H]1C(=O)N1CCC2=C(CCCC2)C1CN1C(=O)c2ccccc2C1=O (stereo partly drawn)

max delta Tm (at 10 µM): 0.13 °C (inactive)
Structure (SMILES): O=C(O)CCCC(=O)N1CCc2ccccc2C1CN1C(=O)c2ccccc2C1=O (stereo not drawn)

max delta Tm (at 38 µM): 4.85 degrees C
Structure (SMILES): O=C(O)Cc1ccccc1C(=O)N1CCc2ccccc2[C@H]1CN1C(=O)c2ccccc2C1=O

max delta Tm (at 0.16 µM): 0.107 °C (inactive)
Structure (SMILES): Cc1cc(C)c(S(=O)(=O)Nc2nc(N(C)C)nc3ccccc23)c(C)c1

max delta Tm (at 0.3 µM): 0.118 °C (inactive)
Structure (SMILES): CCOC(=O)C(C(=O)OCC)c1cc(CNS(=O)(=O)c2ccc(C)cc2C)c2ccccc2n1

max delta Tm (at 0.16 µM): -0.041 °C (inactive)
Structure (SMILES): O=C(O)[C@H]1CCCC[C@H]1C(=O)N1CCc2ccccc2C1 (racemic)

max delta Tm (at 1.2 µM): -0.023 °C (inactive)
Structure (SMILES): COC(=O)[C@@H]1CCCC[C@@H]1C(=O)N1CCc2ccccc2[C@H]1CN1C(=O)c2ccccc2C1=O

max delta Tm (at 2.6 µM): 0.017 °C (inactive)
Structure (SMILES): O=C(O)c1ccccc1C(=O)N1CCc2ccccc2C1CN1C(=O)c2ccccc2C1=O (stereo not drawn)

max delta Tm (at 38 µM): 0.208 °C (inactive)
Structure (SMILES): O=C1c2ccccc2C(=O)N1C[C@@H]1c2ccccc2CCN1C(=O)C1CCCCC1

max delta Tm (at 2.6 µM): 0.062 °C (inactive)
Structure (SMILES): O=C(Oc1cc(CN2C(=O)c3ccccc3C2=O)c2ccccc2[n+]1[O-])c1cccc(Cl)c1

max delta Tm (at 0.3 µM): 0.2 °C (inactive)
Structure (SMILES): Cc1ccc(S(=O)(=O)NNc2nc(C(C(=O)OC(C)C)C(=O)C(F)(F)F)nc3ccccc23)cc1 (stereo not drawn)
